This is an account of results in article PMC9421654, “Discovery of Substituted Di(pyridin-2-yl)-1,2,4-thiadiazol-5-amines as Novel Macrofilaricidal Compounds for the Treatment of Human Filarial Infections” (Journal of Medicinal Chemistry, 2022).

Values after ≈ are worked out from the molar mass of the structure shown. Values joined by “and” are separate entries in the source; they are usually repeats but may differ in a detail not shown here. Identical values can stand only once. Like-named read-outs stand apart in the source and are kept apart here. Marks after values point to notes of the source that are not given here.

The subject of data set [1] is O. gutturosa adult male worms. Kind of data set: O. gutturosa adult worm ex vivo assay, motility. It is filed as cell-based, Onchocerca gutturosa. Particulars: Onchocerca gutturosa. A digest of the protocol: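 Adult male O. gutturosa from naturally infected cattle were cultured in supplemented MEM at 37 °C, 5% CO2, with four worms per concentration in serial 1-in-4 dilutions. Motility (0–10 scale) was scored every 24 h to 120 h. EC50 (geomean, n=2) for motility reduction came from 4PL fits, and viability was checked by MTT at 120 h.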

For data set [2], the system named is O. gutturosa adult male worms. Briefly: O. gutturosa adult worm ex vivo assay, MTT/formazan viability. The conditions noted are these: Onchocerca gutturosa, supplement; SD in brackets in the PDF table; read-out: O. gutturosa EC50 (uM) MTT viability inhibition. It is filed as cell-based, Onchocerca gutturosa. Summed up:
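Adult male worms from naturally infected Gambian cattle were kept individually in MEM with 10% newborn calf serum at 37 °C, 5% CO2; four worms per concentration. Motility was scored 0-10 every 24 h to 120 h as a percentage of maximum, with ≥50% reduction versus untreated counted active. Afterwards, MTT (0.5 mg/mL, 30 min) formazan was read at 490 nm.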

Data set [3] can be described thus: Kinetic solubility measurement. Format: physicochemical. Particulars: for solubility kinetic at 24 h: 10 mM DMSO stock solutions. Summed up:
(§1)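 Human and rat liver microsomes (0.3 mg/mL) with 1 mM NADPH and 3µM substrate, 30 minutes at 37 °C in pH 7.4 phosphate/MgCl2, triplicate; LC-MS/MS percentage remaining. LogD: octanol/aqueous buffer (pH 7.4, 2.2, 6.8, 5), 24 h shaking at room temperature. Kinetic solubility: 200 µM, 2% DMSO, 24 h, filtered.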

Data set [4] in a line: Liver microsome metabolic stability assay, rat. The conditions noted are these: Table 1; 3 μM, 30 min. It is filed as in vitro ADME. The procedure:
(§2) Liver Microsome Metabolic Stability Assay: Incubations were performed at 37 °C in a Dubnoff Shaking water bath using 2 mL 96-well incubation plates. Liver microsome protein concentration was 0.3 mg/mL the final concentration of NADPH was 1 mM. Substrate concentrations are 3µM, incubation time is 30 minutes, and all tests are done in triplicate. The incubation was conducted in 200 mM Phosphate buffer containing 2 mM magnesium chloride, pH=7.4 and the total incubation volume was 0.5 mL. Samples were analyzed via LC-MS/MS and reported as percentage remaining after 30minute incubation, which can then be converted to half-life and intrinsic clearance. […]

Data set [5] can be described thus: Liver microsome metabolic stability assay, human. The conditions noted are these: 3 μM, 30 min. Format: in vitro ADME. The procedure: as §2
Another data set in a line: Mouse pharmacokinetics. The conditions noted are these: male CD-1 mouse, PO 30 mg/kg suspension. Format: in vivo. An excerpt:
All animal experiments were approved by the Institutional Animal Care and Use Committee (IACUC) of Bristol Myers Squibb.

For a further data set, the system named is THLE-2 cells. Briefly: THLE-2 cytotoxicity assay (ATP). Particulars: Homo sapiens, THLE-2, 24 h, read-out: THLE IC50. The procedure:
In vitro cytotoxicity of select compounds was tested in a “normal” proliferating transformed human liver epithelial (THLE-2) cell line.[35] Compounds were incubated in THLE-2 cells for 24 and 72 h, and adenosine triphosphate (ATP) levels were used as an indicator of cell viability.
THLE-2 Cytotoxicity Assay: THLE-2 cells (ATCC, catalog #CRL-2706) were plated in LHC-8 Media (Invitrogen, catalog #12679015) supplemented with fetal bovine serum (GE, catalog #SH30088.03), 70 ng/mL phosphoethanolamine (Sigma, catalog #P0503), 5 ng/mL EGF (Sigma, catalog #E9644), 1X penicillin/streptomycin (Gibco, catalog #15140148), and 1X glutamine (Invitrogen, catalog #25030024) in 384-well clear-bottom, black walled plates at a density of 3750 cells/well (15μL/well). After plating, cells were incubated overnight at 37°C in an incubator with 5% CO2 and 90% humidity. Compounds were first serially diluted in dimethyl sulfoxide then diluted in LHC-8 media growth media to 2X concentration. Cells were dosed with 15μL of each dose for final concentrations between 0.01 – 300 μM. Cells were incubated with compounds for 24 or 72 hours. Cytotoxicity was determined with Cell Titer Glo Luminescent ATP Assay (Promega, catalog #G7573) according to the manufacturer’s instructions. Tamoxifen (Sigma, catalog #BC9353476) was used as a positive control. levels at each dose were normalized to that of cells dosed with dimethyl sulfoxide vehicle alone and IC50 values were calculated from non-linear regression fits of dose-response curves plotted

Data set [6] is described as follows: LogD measurement (octanol-water). Format: physicochemical. Summed up:
as §1

A short description of data set [7]: Liver microsome metabolic stability assay, mouse. It is filed as in vitro ADME. The conditions noted are these: 3 μM, 30 min; for Rat Microsomes: Tables 2 and 3, footnote: tested in the mouse liver microsome assay. As to the method:
as §2

The target of another data set is T1, P-glycoprotein (MDR1) (Homo sapiens, UniProt P08183).
T1 construct: expressed in transfected cells; host or cells: MDCK (Madin Darby canine kidney) cells
T1 sequence (P08183 whole entry): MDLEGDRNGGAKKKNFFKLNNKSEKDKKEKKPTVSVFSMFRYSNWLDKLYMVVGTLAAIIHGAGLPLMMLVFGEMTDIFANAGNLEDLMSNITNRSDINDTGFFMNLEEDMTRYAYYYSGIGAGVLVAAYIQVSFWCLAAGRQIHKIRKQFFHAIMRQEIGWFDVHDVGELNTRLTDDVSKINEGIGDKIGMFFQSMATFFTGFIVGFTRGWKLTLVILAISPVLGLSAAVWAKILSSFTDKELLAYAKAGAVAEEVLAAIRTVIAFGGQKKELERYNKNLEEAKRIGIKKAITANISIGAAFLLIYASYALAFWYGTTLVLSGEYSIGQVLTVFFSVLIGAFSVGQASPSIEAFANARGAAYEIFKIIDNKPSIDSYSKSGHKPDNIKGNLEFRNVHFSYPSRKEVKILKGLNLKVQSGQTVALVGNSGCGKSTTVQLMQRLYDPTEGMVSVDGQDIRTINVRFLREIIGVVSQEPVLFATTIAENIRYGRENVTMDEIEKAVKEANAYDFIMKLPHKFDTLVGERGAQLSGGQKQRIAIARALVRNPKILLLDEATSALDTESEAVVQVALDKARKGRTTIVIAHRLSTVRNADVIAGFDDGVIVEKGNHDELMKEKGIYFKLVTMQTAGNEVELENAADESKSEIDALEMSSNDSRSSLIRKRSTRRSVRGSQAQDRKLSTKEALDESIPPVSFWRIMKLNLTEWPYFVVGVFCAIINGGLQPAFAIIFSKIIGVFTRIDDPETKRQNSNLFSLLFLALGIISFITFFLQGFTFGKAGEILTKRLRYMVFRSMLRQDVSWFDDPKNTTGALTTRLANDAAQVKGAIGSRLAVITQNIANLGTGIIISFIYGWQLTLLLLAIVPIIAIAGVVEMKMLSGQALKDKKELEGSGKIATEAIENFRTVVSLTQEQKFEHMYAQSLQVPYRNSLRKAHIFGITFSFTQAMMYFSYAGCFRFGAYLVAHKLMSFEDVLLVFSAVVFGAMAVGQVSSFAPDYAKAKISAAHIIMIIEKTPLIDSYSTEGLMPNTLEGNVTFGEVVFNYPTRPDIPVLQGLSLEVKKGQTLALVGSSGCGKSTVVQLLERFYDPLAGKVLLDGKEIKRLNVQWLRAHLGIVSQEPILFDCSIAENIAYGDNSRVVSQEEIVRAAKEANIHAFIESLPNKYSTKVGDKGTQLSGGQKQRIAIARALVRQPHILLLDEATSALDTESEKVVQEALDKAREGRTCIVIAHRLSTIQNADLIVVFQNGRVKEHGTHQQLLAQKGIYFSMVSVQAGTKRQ
Kind of data set: MDCK/MDR1 permeability and efflux. Format: in vitro ADME. The conditions noted are these: dog. An excerpt:
(§3) Our approach was to target compounds with efflux ratio (ER) >2.5 in the MDCK cell line transfected with MDR1 (multidrug resistance-1 transfected Madin Darby canine kidney cell line). […] Our goal was to impart structural elements designed to impart Pgp recognition.

The target in a further data set is T2, P-gp (MDR1) (Homo sapiens, UniProt P08183).
T2 construct: expressed in transfected cells; host or cells: MDCK (Madin Darby canine kidney) cells
T2 sequence (P08183 whole entry): as above
Briefly: MDCK/MDR1 permeability and efflux. The conditions noted are these: dog. Format: in vitro ADME.
From the text: as §3

The target in data set [8] is T3, hERG potassium channels (KCNH2, expressed in HEK293 cells) (Homo sapiens, UniProt Q12809).
T3 construct: expressed in transfected cells
T3 sequence (Q12809 whole entry): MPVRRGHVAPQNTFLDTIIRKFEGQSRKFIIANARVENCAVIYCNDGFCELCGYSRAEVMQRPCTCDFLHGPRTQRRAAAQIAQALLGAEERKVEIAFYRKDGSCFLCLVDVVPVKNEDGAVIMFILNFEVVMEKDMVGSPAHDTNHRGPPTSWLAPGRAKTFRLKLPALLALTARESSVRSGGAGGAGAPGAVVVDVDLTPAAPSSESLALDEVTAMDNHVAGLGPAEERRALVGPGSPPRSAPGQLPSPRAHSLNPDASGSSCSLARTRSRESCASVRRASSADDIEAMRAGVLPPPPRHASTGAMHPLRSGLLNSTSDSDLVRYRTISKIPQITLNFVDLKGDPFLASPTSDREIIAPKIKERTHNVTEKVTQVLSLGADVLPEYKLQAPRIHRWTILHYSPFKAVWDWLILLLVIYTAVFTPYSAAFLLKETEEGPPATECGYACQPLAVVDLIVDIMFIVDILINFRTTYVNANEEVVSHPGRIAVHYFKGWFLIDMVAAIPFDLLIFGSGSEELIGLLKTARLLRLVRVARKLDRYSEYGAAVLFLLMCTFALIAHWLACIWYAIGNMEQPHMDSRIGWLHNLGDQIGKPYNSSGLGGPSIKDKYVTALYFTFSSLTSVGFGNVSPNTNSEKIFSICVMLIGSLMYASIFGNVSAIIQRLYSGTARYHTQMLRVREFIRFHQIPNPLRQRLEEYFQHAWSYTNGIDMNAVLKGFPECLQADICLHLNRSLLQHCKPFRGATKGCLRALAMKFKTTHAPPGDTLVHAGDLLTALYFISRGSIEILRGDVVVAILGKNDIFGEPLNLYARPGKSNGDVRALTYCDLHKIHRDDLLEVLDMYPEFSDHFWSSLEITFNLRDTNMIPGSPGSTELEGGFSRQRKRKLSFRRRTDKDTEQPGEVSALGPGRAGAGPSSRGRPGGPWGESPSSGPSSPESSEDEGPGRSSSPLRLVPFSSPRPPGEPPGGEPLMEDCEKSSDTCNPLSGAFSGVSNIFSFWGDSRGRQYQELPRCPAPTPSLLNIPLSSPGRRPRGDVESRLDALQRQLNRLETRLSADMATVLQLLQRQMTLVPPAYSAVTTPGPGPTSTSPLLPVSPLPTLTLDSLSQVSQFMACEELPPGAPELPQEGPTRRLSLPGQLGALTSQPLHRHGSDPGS
Kind of data set: hERG inhibition. Format: cell-based. The conditions noted are these: supplement.

In data set [9] the test system is L. sigmodontis adult worms. Kind of data set: In vivo efficacy, L. sigmodontis-infected jirds. The arrangement: species or system jird (Meriones unguiculatus). Particulars: 2 mg/kg QD 5d SC.
Data set [10] concerns L. sigmodontis adult worms. Particulars: mouse, in vivo.
Setting [11] is: read-out: O. gutturosa EC50 μM (SD), ex vivo adult worm motility reduction, SD in brackets.
The mark [12] stands for this setting: read-out: O. gutturosa EC50 (uM) motility inhibition, supplement, SD in brackets in the PDF table.
Setting [13] is: supplement, read-out: measured logD.

Regarding `COc1ccc(Nc2nc(-c3ccccn3)ns2)nc1` [Compound 2], the EC50 in data set [1] (setting [11]) is 1.7 µM. Moreover, the concentration for a half-maximal effect (EC50) in [2] is 1.5 µM. In [3], this compound returned a solubility (kinetic) at 24 h of 62.7 µM (≈ 17.9 µg/mL). In data set [4], the “Rat Microsomes” value was 78 % remaining. In data set [5], the “Human Microsomes” value came to 90 % remaining. Further, in “Mouse pharmacokinetics”, the “AUC(0-inf)” value was 3.61 ± 0.86 µM·h, the Cmax is 1260 ± 290 nM and the Tmax came to 1.3 ± 0.5 h. Besides, in the data set with THLE-2 cells, the IC50 was above 300 µM.
As for `Cc1cccnc1Nc1nnc(-c2ccc(OC3CCOCC3)cn2)s1` [Compound 4, 3-Methyl-N-{5-[5-(oxan-4-yloxy)pyridin-2-yl]-1,3,4-thiadiazol-2-yl}pyridin-2-amine], the EC50 in data set [1] (setting [11]) is 2.6 µM; in data set [1] (setting [12]), above 12 µM; in data set [2], 2.8 µM. The solubility (kinetic) at 24 h in data set [3] worked out at 0.4 µM (≈ 0.148 µg/mL). In addition, the pH-dependent lipophilicity (logD) at 24 h in data set [6] (setting [13]) stood at 2.7. For the same compound, the “Rat Microsomes” value in [4] is 89 % remaining. Besides, in data set [5], the “Human Microsomes” value was determined as 100 % remaining.
In data set [3], `Cc1cccnc1Nc1nsc(-c2ccc(OC3CCOCC3)cn2)n1` [Compound 5, N-(3-Methylpyridin-2-yl)-5-(5-((tetrahydro-2h-pyran-4-yl)oxy)pyridin-2-yl)-1,2,4-thiadiazol-3-amine] returned a solubility (kinetic) at 24 h of 182 µM (≈ 67.2 µg/mL). For the same compound, the log distribution coefficient (logD) at 24 h in data set [6] (setting [13]) was determined as 2.15. For the same compound, the “Rat Microsomes” value in data set [4] came to 89 % remaining. Also, in data set [5], the “Human Microsomes” value came out at 77 % remaining.
With `Cc1cccnc1Nc1nnc(-c2ccc(OC3CCOCC3)cn2)o1` [Compound 7, (3-Methyl-pyridin-2-yl)-{5-[5-(tetrahydro-pyran-4-yloxy)-pyridin-2-yl]-[1,3,4]oxadiazol-2-yl}-amine], the EC50 in data set [1] (setting [11]) was 0.94 µM; in data set [1] (setting [12]) it was 0.935 µM; in [2], 6.5 µM. This compound gave a solubility (kinetic) at 24 h in data set [3] of 12.8 µM (≈ 4.52 µg/mL). In addition, the logD at 24 h in [6] (setting [13]) was 1.55. Moreover, in data set [4], the “Rat Microsomes” value is on record as 39 % remaining. In addition, the “Human Microsomes” value in [5] stood at 83 % remaining.
With `Cc1cccnc1Nc1n[nH]c(-c2ccc(OC3CCOCC3)cn2)n1` [Compound 8, 3-Methyl-N-{5-[5-(oxan-4-yloxy)pyridin-2-yl]-4H-1,2,4-triazol-3-yl}pyridin-2-amine], the EC50 was found to be 0.01 µM in [1] (setting [11]), 0.009 µM in data set [1] (setting [12]) and 0.004 µM in data set [2]. In addition, the kinetic solubility at 24 h in data set [3] stood at 202 µM (≈ 71.1 µg/mL). Moreover, in data set [6] (setting [13]), the logD at 24 h is 2. In addition, the “Human Microsomes” value in data set [5] was found to be 92 % remaining. Also, the “Rat Microsomes, (m)” value in data set [7] (Table 1, tested in the mouse not rat) is given as 70 (m)^e % remaining.
As for `Cc1cccnc1Nc1nc(-c2cc(C(=O)N(C)C)c(OC(C)C)cn2)ns1` [Compound 17], the EC50 in [1] (setting [11]) is 0.63 µM; in data set [1] (setting [12]), 0.626 µM; in data set [2] it was 0.5 µM. For the same compound, in data set [3], the kinetic solubility at 24 h is 154 µM (≈ 61.6 µg/mL). Besides, the pH-dependent lipophilicity (logD) at 24 h in data set [6] (pH 7.4, read-out: logD) came to 2.3; in data set [6] (setting [13]) it was 2.3. In data set [5], the “Human Microsomes” value amounted to 91 % remaining. In addition, the “Rat Microsomes” value in data set [7] was determined as 90 % remaining.
As to `CC(C)Oc1cnc(-c2nsc(Nc3ncccc3C(C)C)n2)cc1C(F)(F)F` [Compound 24, 3-(5-Isopropoxy-4-(trifluoromethyl)pyridin-2-yl)-N-(3-isopropylpyridin-2-yl)-1,2,4-thiadiazol-5-amine], the EC50 was 0.05 µM in data set [1] (setting [11]); 0.051 µM in [1] (setting [12]); below 0.1 µM in data set [1] (read-out: O. gutturosa EC50, adult worm motility, bound stated); 0.75 µM in data set [2]. In data set [3], the solubility (kinetic) at 24 h worked out at 1.05 µM (≈ 0.445 µg/mL). Further, the log distribution coefficient (logD) at 24 h in [6] (pH 7.4, read-out: logD) stood at 2.9; in data set [6] (setting [13]) it was 2.9. In data set [5], the “Human Microsomes” value was found to be 97 % remaining. In [7], the “Rat Microsomes” value is 96 % remaining.
Take `CC(C)Oc1cnc(-c2nsc(Nc3ncccc3N(C)C)n2)cc1C(F)(F)F` [Compound 34]: the values for the EC50 in data set [1] (setting [11]), in [1] (setting [12]) and in data set [2] were 0.04 µM, 0.036 µM and 0.53 µM, respectively. Moreover, in [3] (24 h), the “fold less soluble than 47” value was 10 fold. In addition, the logD at 24 h in data set [6] (pH 7.4, read-out: logD) amounted to 2.9; in data set [6] (setting [13]), 2.9. Also, in data set [5], the “Human Microsomes” value was determined as 98 % remaining. The “Rat Microsomes” value in data set [7] came out at 93 % remaining.
As for `Cc1cccnc1Nc1nc(-c2ncc(OC(C)C)cn2)ns1` [Compound 40, 3-(5-Isopropoxypyrimidin-2-yl)-N-(3-methylpyridin-2-yl)-1,2,4-thiadiazol-5-amine], the EC50 in data set [1] (setting [11]) amounted to 2.35 µM; in data set [2], 2.9 µM. Also, in data set [3], the solubility (kinetic) at 24 h came to 12.3 µM (≈ 4.04 µg/mL). The logD at 24 h in [6] (pH 7.4, read-out: logD) was determined as 2.9; in data set [6] (setting [13]), 2.9. For the same compound, in [5], the “Human Microsomes” value is recorded as 96^c % remaining. Further, the “Rat Microsomes” value in data set [7] is 90^c % remaining.
On to `CC(C)Oc1ccc(-c2nsc(Nc3ncccc3C(N)=O)n2)nc1` [Compound 59, 2-((3-(5-Isopropoxypyridin-2-yl)-1,2,4-thiadiazol-5-yl)amino)nicotinamide], for which the EC50 in [1] (setting [11]) is 2.6 µM; in data set [2], 3.4 µM. In [3], this compound had a kinetic solubility at 24 h of 0.3 µM (≈ 0.107 µg/mL). Besides, the log distribution coefficient (logD) at 24 h in [6] (pH 7.4, read-out: logD) was 1.6; in data set [6] (setting [13]) it was 1.6. Besides, the Papp A→B at P-glycoprotein (MDR1) is 0.79 ×10⁻⁶ cm/s; on P-gp (MDR1), 0.8 ×10⁻⁶ cm/s. Further, the IC50 in data set [8] is above 30 µM.
As for Flubendazole [FBZ, reference compound], the “adult worm burden reduction” value is -100% in [9] (jirds infected SC with 40 L3 larvae (Fig 2C)); -98.8% and -100% in data set [10]. Moreover, the “reduction of adult worm burden” value in data set [9] (patent, naturally infected jirds) is listed as -100%.
